{"source": "paper PMC5891061", "about": "“Electrophysiological mechanisms of vandetanib-induced cardiotoxicity: Comparison of action potentials in rabbit Purkinje fibers and pluripotent stem cell-derived cardiomyocytes” (PLoS ONE, 2018)", "key": {"SCN5A (INa)": {"molecular_target": "T1, SCN5A (INa) (Homo sapiens, UniProt Q14524)", "T1 construct": "expressed in transfected cells; host or cells: HEK293", "T1 sequence (Q14524 whole entry, species assumed)": "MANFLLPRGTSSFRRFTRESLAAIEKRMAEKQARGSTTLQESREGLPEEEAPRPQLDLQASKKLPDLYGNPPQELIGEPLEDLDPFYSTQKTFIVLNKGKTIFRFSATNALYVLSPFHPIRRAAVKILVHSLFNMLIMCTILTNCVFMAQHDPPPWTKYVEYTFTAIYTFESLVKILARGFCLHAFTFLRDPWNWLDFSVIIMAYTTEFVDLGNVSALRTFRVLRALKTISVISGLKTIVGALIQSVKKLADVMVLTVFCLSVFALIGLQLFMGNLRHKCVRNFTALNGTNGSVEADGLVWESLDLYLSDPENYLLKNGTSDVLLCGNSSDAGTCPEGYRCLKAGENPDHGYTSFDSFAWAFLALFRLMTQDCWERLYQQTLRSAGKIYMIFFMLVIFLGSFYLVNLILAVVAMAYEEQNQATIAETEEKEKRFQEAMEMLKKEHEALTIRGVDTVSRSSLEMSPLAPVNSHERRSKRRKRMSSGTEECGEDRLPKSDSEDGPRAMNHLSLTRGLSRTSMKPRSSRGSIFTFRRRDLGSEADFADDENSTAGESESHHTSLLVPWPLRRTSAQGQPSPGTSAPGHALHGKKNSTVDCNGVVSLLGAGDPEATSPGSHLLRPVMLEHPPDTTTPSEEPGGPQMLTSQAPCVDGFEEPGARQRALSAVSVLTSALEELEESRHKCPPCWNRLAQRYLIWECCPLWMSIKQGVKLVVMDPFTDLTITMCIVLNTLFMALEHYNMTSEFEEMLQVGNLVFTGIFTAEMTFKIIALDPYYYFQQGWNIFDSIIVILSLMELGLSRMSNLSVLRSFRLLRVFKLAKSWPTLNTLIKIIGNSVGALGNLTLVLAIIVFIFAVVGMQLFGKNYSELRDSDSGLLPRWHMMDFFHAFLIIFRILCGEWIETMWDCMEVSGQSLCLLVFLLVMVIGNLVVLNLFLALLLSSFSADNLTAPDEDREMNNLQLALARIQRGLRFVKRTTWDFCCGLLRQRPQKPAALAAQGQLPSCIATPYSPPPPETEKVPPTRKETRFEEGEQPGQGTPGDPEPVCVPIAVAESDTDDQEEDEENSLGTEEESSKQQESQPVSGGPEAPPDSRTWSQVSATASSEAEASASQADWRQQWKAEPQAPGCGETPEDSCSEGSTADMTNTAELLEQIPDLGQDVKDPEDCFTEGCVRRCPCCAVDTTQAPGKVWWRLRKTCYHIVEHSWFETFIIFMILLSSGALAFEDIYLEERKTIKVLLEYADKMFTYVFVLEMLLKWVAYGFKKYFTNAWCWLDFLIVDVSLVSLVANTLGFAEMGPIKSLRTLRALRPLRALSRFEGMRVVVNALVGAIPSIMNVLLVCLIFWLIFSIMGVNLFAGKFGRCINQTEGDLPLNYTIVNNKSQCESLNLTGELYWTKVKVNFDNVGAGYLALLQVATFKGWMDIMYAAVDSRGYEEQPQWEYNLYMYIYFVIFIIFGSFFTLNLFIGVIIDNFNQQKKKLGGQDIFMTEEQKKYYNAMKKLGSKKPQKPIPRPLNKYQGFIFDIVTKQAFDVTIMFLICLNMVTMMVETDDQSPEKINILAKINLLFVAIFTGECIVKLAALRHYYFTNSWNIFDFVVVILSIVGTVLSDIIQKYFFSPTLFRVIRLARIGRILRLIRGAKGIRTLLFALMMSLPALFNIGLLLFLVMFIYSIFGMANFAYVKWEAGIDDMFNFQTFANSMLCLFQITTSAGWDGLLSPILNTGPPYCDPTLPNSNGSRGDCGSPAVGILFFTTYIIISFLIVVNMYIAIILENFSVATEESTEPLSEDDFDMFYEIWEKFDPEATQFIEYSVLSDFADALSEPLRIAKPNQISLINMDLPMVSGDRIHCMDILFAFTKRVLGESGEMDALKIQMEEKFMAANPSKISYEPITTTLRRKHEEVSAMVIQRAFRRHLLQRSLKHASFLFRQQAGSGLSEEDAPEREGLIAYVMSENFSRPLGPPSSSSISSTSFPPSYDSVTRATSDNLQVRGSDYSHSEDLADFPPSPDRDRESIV", "experiment": "Whole-cell patch clamp, INa in SCN5A-transfected HEK293 cells", "type": "cell-based", "conditions": "for INa current: HEK293", "excerpt": "For various aspects of cardiac ion channel study, human embryonic kidney (HEK293; ATCC, Manassas, VA, USA) cells were transiently transfected using lipofectAmin2000 (Gibco BRL, New York, NY, USA) according to the manufacturer’s instructions. The hERG (human ether-ago-go-related gene corresponding to IKr), KCNQ1/KCNE1 (the gene corresponding to IKs), KCNJ2 (the gene corresponding to IK1) or SCN5A (the gene corresponding to INa) cDNA was co-transfected with green fluorescence protein, the surface marker protein, to allow assessment of the transfection efficiency. For the calcium current, enzymatically isolated single rat ventricular myocytes were used. Briefly, the hearts were rapidly excised from anaesthetized Sprague–Dawley rats (250–350 g) and perfused via the aorta on a Langendorff apparatus with an oxygenated normal Tyrode (NT) solution for 5 min. To clear the blood, then perfused with Ca^2+-free normal Tyrode solution for 3 min. Next, the heart was perfused with enzyme solution containing 0.6 mg/mL collagenase (Worthington Biomedical Corp., Lakewood, NJ, USA) for 30–40 min. Finally, this enzyme-containing solution was washed out for 5 min. with a high-K^+ and low-Cl^-) Kraft-Bruhe solution. Following the isolation procedure, the left ventricle was dissected out and agitated mechanically with a fire-polished Pasteur pipette in Kraft-Bruhe solution to obtain single myocytes. The isolated myocytes were stored at 4°C until use.\nThe external solution for recording the IhERG, IKs and INa channel currents was NT solution. […] Kraft-Bruhe solution for storage of the freshly isolated rat ventricular myocytes contained (in mM): 70 K-glutamate, 55 KCl, 10 HEPES, 3 MgCl2, 20 taurine, 20 KH2PO4, 0.5 ethylene glycol tetra acetic (K-EGTA) (pH 7.2 with KOH).\npCLAMP (Axon Instruments, Foster City, CA, USA), Origin 8 (OriginLab Corp, Northampton, MA, USA), and Excel (Microsoft, Redmond, WA, USA) were used for data acquisition and analysis. The concentration–response relationships for drug-induced blockage were calculated using SigmaPlot (Systat Software, San Jose, CA, USA). […] Data are presented as the means ± SEM, and n represents the number of experimental replicates. Statistical significance was determined using the Student’s t-test and one-way ANOVA with post hoc testing using Dunnett’s method; p < 0.05 was considered to indicate statistical significance.\nFor hERG tail current, the cells were depolarized for 2 s to +20 mV from a holding potential of -80 mV followed by a 3 s repolarization back to -40 mV. […] For slow delayed rectifier potassium current (IKs) recording, the cells were depolarized for 3s to +60 mV from a holding potential of -80 mV, followed by a 3 s repolarization back to -40 mV (Fig 2B). […]"}, "WT hERG": {"molecular_target": "WT hERG (Homo sapiens, UniProt Q12809)", "sequence (Q12809 whole entry)": "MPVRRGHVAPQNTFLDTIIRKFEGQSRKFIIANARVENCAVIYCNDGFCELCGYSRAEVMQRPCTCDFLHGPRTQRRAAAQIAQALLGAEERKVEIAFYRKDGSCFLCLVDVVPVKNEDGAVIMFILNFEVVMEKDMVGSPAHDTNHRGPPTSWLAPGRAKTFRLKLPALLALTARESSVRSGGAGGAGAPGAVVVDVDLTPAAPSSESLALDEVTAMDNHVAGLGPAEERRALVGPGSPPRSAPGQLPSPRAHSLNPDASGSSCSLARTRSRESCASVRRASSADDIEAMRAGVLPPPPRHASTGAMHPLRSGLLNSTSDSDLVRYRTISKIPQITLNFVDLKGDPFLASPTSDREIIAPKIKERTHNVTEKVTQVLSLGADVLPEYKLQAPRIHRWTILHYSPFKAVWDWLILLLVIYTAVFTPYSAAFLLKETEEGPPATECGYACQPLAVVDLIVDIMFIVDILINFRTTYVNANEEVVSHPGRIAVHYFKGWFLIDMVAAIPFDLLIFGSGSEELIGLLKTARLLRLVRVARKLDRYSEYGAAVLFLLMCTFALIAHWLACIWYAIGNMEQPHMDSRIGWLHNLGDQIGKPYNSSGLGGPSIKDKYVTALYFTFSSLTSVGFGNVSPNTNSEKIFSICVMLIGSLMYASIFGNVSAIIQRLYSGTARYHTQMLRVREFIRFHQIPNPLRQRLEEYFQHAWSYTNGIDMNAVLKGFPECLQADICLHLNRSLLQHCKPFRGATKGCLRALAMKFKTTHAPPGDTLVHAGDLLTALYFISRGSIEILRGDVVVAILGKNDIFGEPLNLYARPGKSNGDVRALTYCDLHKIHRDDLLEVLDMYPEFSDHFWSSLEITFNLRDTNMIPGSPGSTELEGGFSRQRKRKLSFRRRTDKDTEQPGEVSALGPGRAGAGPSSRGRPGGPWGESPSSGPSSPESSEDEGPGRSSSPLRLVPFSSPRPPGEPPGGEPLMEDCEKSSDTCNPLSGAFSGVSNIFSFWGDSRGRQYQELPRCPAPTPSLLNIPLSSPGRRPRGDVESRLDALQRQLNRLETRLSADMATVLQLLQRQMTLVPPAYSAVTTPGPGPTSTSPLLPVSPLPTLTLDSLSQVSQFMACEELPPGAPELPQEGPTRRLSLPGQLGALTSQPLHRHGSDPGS", "experiment": "Alanine scanning: wild-type hERG current in HEK-293 cells", "excerpt": "The hERG mutations were constructed by site-directed mutagenesis of WT hERG cDNA in pcDNA3.1 vector using the QuickChange Site-Directed Mutagenesis Kit (Stratagene), and the integrity of the construct was verified by DNA sequencing. The WT hERG (generously donated by Professor Ho, Seoul National University, Korea) and mutant channels were transiently expressed in an HEK-293 cell line using Lipofectamine 2000 (Gibco), according to the manufacturer’s recommendations."}, "rabbit Purkinje fibers": {"system": "rabbit Purkinje fibers", "experiment": "Action potential recording in rabbit Purkinje fiber", "conditions": "for APA / APD50 / APD90 / RMP / Vmax: 1 Hz pacing", "description": "This study was conducted in facilities approved by the AAALAC (Association for Assessment and Accreditation of Laboratory Animal Care) International. All procedures were approved by our Institutional Animal Care and Use Committee (IACUC). Female New Zealand white rabbits (1.8–2 kg) were anaesthetized with pentobarbital sodium (45 mg/kg intravenously). Their hearts were rapidly removed and placed in normal Tyrode’s solution: 143 NaCl; 5.4 KCl; 5.0 HEPES (4-(2-hydroxyethyl)-1-piperazineethanesulfonic acid); 0.33 H2PO4; 0.5 MgCl2; 16.6 Glucose; 1.8 CaCl2; pH 7.4 aerated with O2 gas. Purkinje fibers (PFs) were excised from the left ventricle and stored in a chamber superfused with normal Tyrode’s solution at 37.0 ± 0.5 °C and 5 mL/min. Action potentials (APs) were recorded using the conventional intracellular recording technique. The tissue preparation was driven by electrical pulses (duration = 2 ms, frequencies of 1 Hz). The signals of APs were amplified with Geneclamp 500B (Molecular Devices Corporation, Sunnyvale, CA, USA) and recorded by Notocord systems (Croissy-sur-Seine, France) for off-line analysis."}}, "data": [{"smiles": "COc1cc2c(Nc3ccc(Br)cc3F)ncnc2cc1OCC1CCN(C)CC1", "note": "[Vandetanib]", "values": [{"measurement": "INa current", "setting": "SCN5A (INa); 10 μM", "value": "-948.9 ± 24.2"}, {"measurement": "INa current", "setting": "SCN5A (INa); 30 μM", "value": "-743.0 ± 85.1"}, {"measurement": "INa current", "setting": "SCN5A (INa); 100 μM", "value": "-94.2 ± 36.8"}, {"measurement": "IC50", "setting": "SCN5A (INa); SCN5A-encoded HEK293 cells", "value": 36.6, "unit": "µM"}, {"measurement": "WT hERG current", "setting": "WT hERG; 3 μM", "value": "208.9 ± 21.6"}, {"measurement": "inhibition at 3 μM", "setting": "WT hERG; human, HEK-293 cells transiently expressing wild-type hERG", "value": "~86.4", "unit": "%"}, {"measurement": "APA", "setting": "rabbit Purkinje fibers; 0.3 μM", "value": "118.0 ± 1.9", "unit": "mV"}, {"measurement": "APD50", "setting": "rabbit Purkinje fibers; 0.3 μM", "value": "218.9 ± 20.3", "unit": "ms"}, {"measurement": "APD90", "setting": "rabbit Purkinje fibers; 0.3 μM", "value": "300.1 ± 21.0", "unit": "ms"}, {"measurement": "RMP", "setting": "rabbit Purkinje fibers; 0.3 μM", "value": "-82.2 ± 0.4", "unit": "mV"}, {"measurement": "Vmax", "setting": "rabbit Purkinje fibers; 0.3 μM", "value": "380.9 ± 82.9", "unit": "V/s"}, {"measurement": "APD90 increase compared to vehicle control", "setting": "rabbit Purkinje fibers; 1 μM", "value": 31, "unit": "%"}, {"measurement": "APA", "setting": "rabbit Purkinje fibers; 1 μM", "value": "118.1 ± 2.1", "unit": "mV"}, {"measurement": "APD90", "setting": "rabbit Purkinje fibers; 1 μM", "value": "354.0 ± 25.2", "unit": "ms"}, {"measurement": "RMP", "setting": "rabbit Purkinje fibers; 1 μM", "value": "-82.2 ± 1.2", "unit": "mV"}, {"measurement": "Vmax", "setting": "rabbit Purkinje fibers; 1 μM", "value": "379.9 ± 91.1", "unit": "V/s"}, {"measurement": "APD50 increase compared to vehicle control", "setting": "rabbit Purkinje fibers; 3 μM", "value": 38.9, "unit": "%"}, {"measurement": "APD90 increase compared to vehicle control", "setting": "rabbit Purkinje fibers; 3 μM", "value": 55.6, "unit": "%"}, {"measurement": "APA", "setting": "rabbit Purkinje fibers; 3 μM", "value": "118.1 ± 1.5", "unit": "mV"}, {"measurement": "APD50", "setting": "rabbit Purkinje fibers; 3 μM", "value": "289.6 ± 21.4", "unit": "ms"}, {"measurement": "APD90", "setting": "rabbit Purkinje fibers; 3 μM", "value": "417.1 ± 20.6", "unit": "ms"}, {"measurement": "RMP", "setting": "rabbit Purkinje fibers; 3 μM", "value": "-82.3 ± 2.5", "unit": "mV"}, {"measurement": "Vmax", "setting": "rabbit Purkinje fibers; 3 μM", "value": "382.8 ± 64.6", "unit": "V/s"}, {"measurement": "Effect on RMP, APA, and Vmax", "setting": "rabbit Purkinje fibers; concentrations up to 3 μM", "value": "did not significantly alter"}]}]}
